Measured values reported in patent US20250161263A1, “USE OF A COMPOUND, PHARMACEUTICAL FORMULATION, METHOD OF TREATMENT FOR ASTHMA AND/OR COPD, AND COMPOUND” (FUNDAÇÃO OSWALDO CRUZ, priority 2022, published 2025).
Entries after “also recorded” stand apart in the source; their conditions may differ.

Assays:
Assay type in all cases: in vivo, mice (BALB/c)
[1] = tested on: total inflammatory cells in bronchoalveolar lavage (airway hypersensitivity model in mice); assay: Total inflammatory cell count in bronchoalveolar lavage, ovalbumin-induced airway hypersensitivity model; settings: vs vehicle
Procedure: (§1) The ovalbumin-induced airway hypersensitivity model (BOLANDI et al., 2021), used as the basis for the present findings, induces pathophysiological and structural changes which characterize respiratory diseases such as asthma and chronic obstructive pulmonary disease (COPD).
(§2) The mice were divided into groups of six animals and immunized with a subcutaneous injection of 10 μg of ovalbumin (Sigma, St. Louis, MO) diluted in 2 mg/ml alum (Alunmlmject; Pierce, Rockford, IL), followed by of a booster injection 14 days later. From day 28 onwards, the mice were placed in an acrylic box and subjected to inhalation exposure to ovalbumin (1%) for 15 minutes per day, for five consecutive days. The ovalbumin solution was nebulized using an ultrasonic inhaler (RespiraMax, Brazil). The protocol used to induce airway hypersensitivity was performed as previously described (POSSA, 2013). The naive group was challenged with saline only. […]
(§3) The animals were euthanized with a lethal dose of ketamine and xylazine (300 mg/Kg and 30 mg/Kg, respectively via i.p.) 24 hours after the last challenge to collect bronchoalveolar lavage (BAL). Intratracheal instillation of 1 ml of ice-cold PBS was performed, followed by BAL collection, and this procedure was repeated. The first wash was centrifuged and the supernatant stored at −70° C. for subsequent quantification of cytokines by ELISA. The second wash was centrifuged, the supernatant was discarded and the pellets were resuspended in 1 ml of saline to count total leukocytes using a Neubauer chamber. To carry out the differential cell count, 10,000 cells were collected from the previous resuspension, centrifuged in Cytospin® and stained with hematoxylin and eosin (VASCONCELOS, 2009).

[2] = tested on: eosinophils, neutrophils and mononuclear cells in bronchoalveolar lavage; assay: Differential count of eosinophils, neutrophils and mononuclear cells in bronchoalveolar lavage, airway hypersensitivity model; settings: 50 mg/Kg by inhalation
Procedure: as §1
(§4) The mice were divided into groups of six animals and immunized with a subcutaneous injection of 10 μg of ovalbumin (Sigma, St. Louis, MO) diluted in 2 mg/ml alum (Alunmlmject; Pierce, Rockford, IL), followed by of a booster injection 14 days later. From day 28 onwards, the mice were placed in an acrylic box and subjected to inhalation exposure to ovalbumin (1%) for 15 minutes per day, for five consecutive days. The ovalbumin solution was nebulized using an ultrasonic inhaler (RespiraMax, Brazil). The protocol used to induce airway hypersensitivity was performed as previously described (POSSA, 2013). The naive group was challenged with saline only. To carry out the treatments, two hours before each challenge via inhalation, the mice were treated with braylin ([…] and 12.5 mg/kg, via inhalation), dexamethasone (30 mg/kg via intraperitoneal) or vehicle (10% propylene glycol in saline, inhaled).
as §3

IL-4 = IL-4 in bronchoalveolar lavage by ELISA, airway hypersensitivity model; settings: p<0.05
Procedure: as §1
as §2, with “Brazil).” for “Brazil). The protocol used to induce airway hypersensitivity was performed as previously described (POSSA, 2013). The naive group was challenged with saline only.”
The animals were euthanized with a lethal dose of ketamine and xylazine (300 mg/Kg and 30 mg/Kg, respectively via i.p.) 24 hours after the last challenge to collect bronchoalveolar lavage (BAL). […] The first wash was centrifuged and the supernatant stored at −70° C. for subsequent quantification of cytokines by ELISA. […]
(§5) The bronchoalveolar lavage supernatant stored at −70° C. was thawed and used to quantify the cytokines IL-4, IL-5 and IL-13 by the ELISA method, using specific kits (R&D System, Minnesota, MN, USA) for mice, following the manufacturer's instructions (VASCONCELOS, 2009).

IL-5 = IL-5 in bronchoalveolar lavage by ELISA, airway hypersensitivity model
Procedure: as §1, §4
as §3, with “To carry out the differential cell count, 10,000 cells were collected from the previous resuspension, centrifuged in Cytospin® and stained with hematoxylin and eosin (VASCONCELOS, 2009).” left out
as §5

IL-13 = IL-13 in bronchoalveolar lavage by ELISA, airway hypersensitivity model
Procedure: as §1, §4
as §3, with “To carry out the differential cell count, 10,000 cells were collected from the previous resuspension, centrifuged in Cytospin® and stained with hematoxylin and eosin (VASCONCELOS, 2009).” left out
as §5

[3] = tested on: inflammatory cells in lung tissue; assay: Pulmonary inflammatory infiltrate, HE-stained lung sections, airway hypersensitivity model; settings: 50 mg/kg inhaled, vs vehicle, p<0.05
Procedure: The mice were divided into groups of six animals and immunized with a subcutaneous injection of 10 μg of ovalbumin (Sigma, St. Louis, MO) diluted in 2 mg/ml alum (Alunmlmject; Pierce, Rockford, IL), followed by of a booster injection 14 days later. From day 28 onwards, the mice were placed in an acrylic box and subjected to inhalation exposure to ovalbumin (1%) for 15 minutes per day, for five consecutive days. The ovalbumin solution was nebulized using an ultrasonic inhaler (RespiraMax, Brazil). […] The naive group was challenged with saline only.
After collecting the bronchoalveolar lavage, lung perfusion was performed intratracheally with 1 ml formalin (4%) and, subsequently, the right lobe of the lungs of each animal was removed and fixed in the same solution for histological and morphometric analysis. The sections were stained with hematoxylin and eosin to quantify inflammatory cells by optical microscopy according to the number of cores present in the fields with the largest population of cells. […] 10 fields (400×) per animal were analyzed for a total of 5 animals, and the data were used to calculate the average number of cells per mm^2, or the area stained with PAS. The program used to assist in cell counting and area determination was Image-Pro PLUS, version 4.5 (Media Cybernetics, Silver Spring, USA).

[4] = tested on: PAS-labeled mucus-producing goblet cells of the bronchiolar epithelium; assay: Goblet cell metaplasia / mucus production, PAS-stained lung sections, airway hypersensitivity model; settings: braylin treatment (FIG. 5: 50 mg/kg/in), p<0.05
Procedure: as §1
as §2, with “Brazil).” for “Brazil). The protocol used to induce airway hypersensitivity was performed as previously described (POSSA, 2013). The naive group was challenged with saline only.”
After collecting the bronchoalveolar lavage, lung perfusion was performed intratracheally with 1 ml formalin (4%) and, subsequently, the right lobe of the lungs of each animal was removed and fixed in the same solution for histological and morphometric analysis. The sections were stained with hematoxylin and eosin to quantify inflammatory cells by optical microscopy according to the number of cores present in the fields with the largest population of cells. To quantify mucus production, staining was performed with periodic acid-Schiff (PAS) and the marked areas were quantified. […]

`COc1cc2ccc(=O)oc2c2c1OC(C)(C)C=C2` [braylin] was tested, and the “number of inflammatory cells in the BAL” value ([1]; 12.5 mg/kg by inhalation) was “no effect”, the “number of inflammatory cells in the BAL” value ([1]; 25 mg/kg by inhalation, p<0.05) was “reduced” and the “number of inflammatory cells in the BAL” value ([1]; 50 mg/kg by inhalation, 5 consecutive days, p<0.05) was “significantly lower; also recorded: reduced”. For the same compound, the “number of inflammatory cells in the BAL” value ([1]; 50 mg/kg intraperitoneally, 5 consecutive days, p<0.05) was “significantly lower”, the “number of inflammatory cells in the BAL” value ([1]; 100 mg/kg by inhalation, p<0.05) was “reduced” and the “quantity of mononuclear cells in BAL” value ([2]; compared with naive group) was “approached the values found in mice in the naive group”. The “amount of eosinophils present in BAL” value ([2]; vs vehicle, p<0.05) was “reduced”, the “amount of neutrophils present in BAL” value ([2]; vs vehicle, p<0.05) was “reduced” and the “level of IL-4 in BAL” value (IL-4; 25 mg/kg inhaled) was “reduced”. For the same compound, the “level of IL-4 in BAL” value (IL-4; 50 mg/kg inhaled) was “reduced”, the “level of IL-5 in BAL” value (IL-5; 12.5 mg/kg inhaled) was “significant reduction” and the “level of IL-5 in BAL” value (IL-5; 25 mg/kg inhaled, p<0.05) was “reduced”. The “level of IL-5 in BAL” value (IL-5; 50 mg/kg inhaled, p<0.05) was “reduced”, the “level of IL-13 in BAL” value (IL-13; 12.5 mg/kg inhaled) was “significant reduction” and the “level of IL-13 in BAL” value (IL-13; 25 mg/kg inhaled, p<0.05) was “reduced”. The “level of IL-13 in BAL” value (IL-13; 50 mg/kg inhaled, p<0.05) was “reduced”, the “lung inflammation, presence of inflammatory cells in HE-stained lung” value [3] was “reduction in lung inflammation” and the “Goblet cell labeling (PAS) in the bronchiolar epithelium, mucus production” value [4] was “reduced”.
